Source: US6407103B2, “Indeno [1,2-c] pyrazol-4-ones and their uses” (Bristol-Myers Squibb Pharma Company, priority 1998, dated 2002)
Counter-ions that a name gives are not always drawn.

melting point [°C]	Compound
189	O=C(Nc1cccc2c1C(=O)c1c-2n[nH]c1-c1ccc(C(=O)NN2CCCCC2)s1)NN1CCOCC1 (as salt: TFA) [Example CXLVII, 3-(5-piperidinoaminocarbonyl-2-thienyl)-5-(morpholinocarbamoylamino)indeno [1,2-c]pyrazol-4-one]
201	NC1CCN(C(=O)c2ccc(-c3[nH]nc4c3C(=O)c3c(NC(=O)NN5CCOCC5)cccc3-4)s2)C1 (stereo not shown) (as salt: TFA) [Example CLXXV, 3-(5-(3-aminopyrrolidinocarbonyl)-2-thienyl)-5-(morpholinocarbamoylamino)indeno[1,2-c]pyrazol-4-one]
> 280	NC(=O)Nc1cccc2c1C(=O)c1c-2n[nH]c1-c1ccsc1 [Example C, 3-(3-thienyl)-5-(carbamoylamino)indeno[1,2-c]pyrazol-4-one]
> 300	COc1ccc(-c2[nH]nc3c2C(=O)c2c(NC(=O)Nc4ccccc4)cccc2-3)cc1 [Example XLII, 3-(4-methoxyphenyl)-5-((phenylcarbamoyl)amino)indeno [1,2-c]pyrazol-4-one]
191	CN(C)C1CCN(C(=O)[C@H]2CC[C@H](c3[nH]nc4c3C(=O)c3c(NC(=O)NN5CCOCC5)cccc3-4)CC2)C1 (stereo partly drawn) (as salt: TFA) [Example CCCII, 3-(trans-4-(3-(dimethylamino)pyrrolidinocarbonyl)cyclohexyl)-5-(morpholinocarbamoylamino)indeno[1,2-c]pyrazol-4-one]
248	O=C(Nc1cccc2c1C(=O)c1c-2n[nH]c1[C@H]1CC[C@H](C(=O)N2CCNCC2)CC1)NN1CCOCC1 (as salt: TFA) [Example CCCIII, 3-(trans-4-(piperazinocarbonyl)cyclohexyl)-5-(morpholinocarbamoylamino)indeno[1,2-c]pyrazol-4-one]
300	COc1ccc(-c2[nH]nc3c2C(=O)c2c(NC(=O)Cc4ccccc4Cl)cccc2-3)cc1 [Example XXII, 3-(4-methoxyphenyl)-5-((2-chlorophenyl)acetamido)indeno[1,2-c]pyrazol-4-one]
297	COc1ccc(-c2[nH]nc3c2C(=O)c2c(NC(=O)Cc4ccc5c(c4)OCO5)cccc2-3)cc1 (hydrate or solvate) [Example XVII, 3-(4-methoxyphenyl)-5-((3,4-methylenedioxyphenyl)acetamido)indeno[1,2-c]pyrazol-4-one]
287	CCC(=O)Nc1cccc2c1C(=O)c1c-2n[nH]c1-c1ccc(OC)cc1 [Example V, 3-(4-methoxyphenyl)-5-(propanamido)indeno[1,2-c]pyrazol-4-one]
207	O=C(Nc1cccc2c1C(=O)c1c-2n[nH]c1-c1ccc(N2CCNCC2)cc1)NN1CCC[C@@H]1COCc1ccccc1 (as salt: TFA) [Example CCXXXV, 3-(4-piperazinophenyl)-5-((2(R)-(benzyloxymethyl)pyrrolidino)carbamoylamino)indeno[1,2-c]pyrazol-4-one]
258	O=C(CN1CCOCC1)Nc1cccc2c1C(=O)c1c-2n[nH]c1-c1ccc(N2CCOCC2)cc1 [Example LXXXI, 3-(4-morpholinophenyl)-5-(morpholinoacetamido)indeno[1,2-c]pyrazol-4-one]
269	Cn1ccc(-c2[nH]nc3c2C(=O)c2c(NC(N)=O)cccc2-3)c1 [Example LXXXVIX, 3-(1-methyl-3-pyrrolyl)-5-(carbamoylamino)indeno[1,2-c]pyrazol-4-one]
> 300	CC(=O)Nc1cccc2c1C(=O)c1c-2n[nH]c1-c1ccc(N2CCOCC2)cc1 [Example LVIII, 3-(4-morpholinophenyl)-5-(acetamido)indeno[1,2-c]pyrazol-4-one]
158	CN1CCCC(C(=O)N2CCC(c3[nH]nc4c3C(=O)c3c(NC(=O)NN5CCOCC5)cccc3-4)CC2)C1 (stereo not shown) (as salt: TFA) [Example CCLXXXVIII, 3-(1-(1-methylpiperidin-3-ylcarbonyl)piperidin-4-yl)-5-(morpholinocarbamoylamino)indeno[1,2-c]pyrazol-4-one]
> 300	COc1ccc(-c2[nH]nc3c2C(=O)c2c(NC(=O)CN4CCC(CN)CC4)cccc2-3)cc1 [Example XXX, 3-(4-methoxyphenyl)-5-(4-(aminomethyl)piperidinoacetamido)indeno[1,2-c]pyrazol-4-one]
> 300	COc1ccc(-c2[nH]nc3c2C(=O)c2c(NC(=O)CN)cccc2-3)cc1 [Example XXIII, 3-(4-methoxyphenyl)-5-(aminoacetamido)indeno[1,2-c]pyrazol-4-one]
283	COc1ccc(-c2[nH]nc3c2C(=O)c2c(NC(=O)Cc4ccc(N)cc4)cccc2-3)cc1 [Example XLI, 3-(4-methoxyphenyl)-5-((4-aminophenyl)acetamido)indeno[1,2-c]pyrazol-4-one]
233	O=C(Nc1cccc2c1C(=O)c1c-2n[nH]c1-c1ccc(N2CCC(N3CCCCC3)CC2)cc1)NN1CCOCC1 (as salt: TFA) [Example CCL, 3-(4-(4-piperidinopiperidino)phenyl)-5-(morpholinocarbamoylamino)indeno[1,2-c]pyrazol-4-one]
295	COc1ccc(-c2[nH]nc3c2C(=O)c2c(NC(=O)CN4CCOCC4)cccc2-3)cc1 [Example XXXIII, 3-(4-methoxyphenyl)-5-(morpholinoacetamido)indeno[1,2-c]pyrazol-4-one]
190	O=C(Nc1cccc2c1C(=O)c1c-2n[nH]c1-c1ccc(N2CCNCC2)cc1)NN1CCC[C@H]1CO (as salt: TFA) [Example CCXXXIV, 3-(4-piperazinophenyl)-5-((2(S)-(hydroxymethyl)pyrrolidino)carbamoylamino)indeno[1,2-c]pyrazol-4-one]
> 300	COc1ccc(-c2[nH]nc3c2C(=O)c2c(NC(=O)CN4CCN(c5ccccn5)CC4)cccc2-3)cc1 [Example LXX, 3-(4-methoxyphenyl)-5-(4-(2-pyridyl)piperazinoacetamido)indeno[1,2-c]pyrazol-4-one]
> 300	COc1ccc(-c2[nH]nc3c2C(=O)c2c(NC(=O)Cc4ccc(OC)c(OC)c4)cccc2-3)cc1 [Example XIII, 3-(4-methoxyphenyl)-5-((3,4-dimethoxyphenyl)acetamido)indeno[1,2-c]pyrazol-4-one]
228	O=C(Nc1cccc2c1C(=O)c1c-2n[nH]c1-c1ccc(C(=O)N2CCC(N3CCCC3)CC2)s1)NN1CCOCC1 (as salt: TFA) [Example CLIX, 3-(5-(4-pyrrolidinopiperidinocarbonyl)-2-thienyl)-5-(morpholinocarbamoylamino)indeno[1,2-c]pyrazol-4-one]

Compound	melting point [°C]
COC[C@H]1CCCN1NC(=O)Nc1cccc2c1C(=O)c1c-2n[nH]c1-c1ccc(C(=O)N2CCN(C(=O)OC(C)(C)C)CC2)s1 (as salt: TFA) [Example CCV, 3-(5-(4-(t-butoxycarbonyl)piperazinocarbonyl)-2-thienyl)-5-(2(R)-(methoxymethyl)pyrrolidinocarbamoylamino)indeno[1,2-c]pyrazol-4-one]	> 300
CC(C)(C)OC(=O)N1CCN(C(=O)N2CCC(c3[nH]nc4c3C(=O)c3c(NC(=O)NN5CCOCC5)cccc3-4)CC2)CC1 (as salt: TFA) [Example CCLXXI, 3-(1-(4-(t-butoxycarbonyl)piperazinocarbonyl)piperidin-4-yl)-5-(morpholinocarbamoylamino)indeno[1,2-c]pyrazol-4-one]	231
